In ChEMBL document CHEMBL2040769, “Lipase-catalyzed preparation of chromomycin A₃ analogues and biological evaluation for anticancer activity” (Bioorg Med Chem Lett, 2012):

Tests used:
COLO 205 [1] = assay: Cytotoxicity against human COLO205 cells; type: functional, cell-based
A2780 [2] = assay: Cytotoxicity against human A2780 cells; type: functional, cell-based
A549 = assay: Cytotoxicity against human A549 cells; type: functional, cell-based
BXPC-3 = assay: Cytotoxicity against human BxPC3 cells; type: functional, cell-based
NIH3T3 = assay: Cytotoxicity against mouse NIH/3T3 cells; type: cell-based
COLO 205 [3] = assay: Ratio of IC50 for chromomycin to compound for human COLO205 cells; type: functional
A2780 [4] = assay: Ratio of IC50 for chromomycin to compound for human A2780 cells; type: functional
COLO 205 [5] = assay: Cytotoxicity against human COLO205 cells relative to chromomycin A3; type: functional; details: pooled result: one value given for 4 cell lines, strains, targets or settings

## C=COC(=O)CCCCC(=O)O[C@H](C)[C@H](O)C(=O)[C@@H](OC)[C@@H]1Cc2cc3cc(O[C@H]4C[C@@H](O[C@@H]5C[C@@H](O)[C@H](OC)[C@@H](C)O5)[C@H](OC(C)=O)[C@@H](C)O4)c(C)c(O)c3c(O)c2C(=O)[C@H]1O[C@H]1C[C@H](O[C@H]2C[C@H](O[C@H]3C[C@@](C)(O)[C@@H](OC(C)=O)[C@H](C)O3)[C@H](O)[C@@H](C)O2)[C@H](O)[C@@H](C)O1
COLO 205 [1]
  IC50: 12 nM
A2780 [2]
  IC50: 5 nM
A549
  IC50: 30 nM
BXPC-3
  IC50: 60 nM
NIH3T3
  IC50: 1200 nM
COLO 205 [3]
  Ratio IC50: 8
A2780 [4]
  Ratio IC50: 5
COLO 205 [5]
  Ratio IC50: 3.2

## CO[C@H]1[C@H](O)C[C@@H](O[C@@H]2C[C@H](Oc3cc4cc5c(c(O)c4c(O)c3C)C(=O)[C@@H](O[C@H]3C[C@H](O[C@H]4C[C@H](O[C@H]6C[C@@](C)(O)[C@@H](OC(C)=O)[C@H](C)O6)[C@H](O)[C@@H](C)O4)[C@H](O)[C@@H](C)O3)[C@H]([C@H](OC)C(=O)[C@@H](O)[C@@H](C)OC(C)=O)C5)O[C@H](C)[C@H]2OC(C)=O)O[C@@H]1C
COLO 205 [1]
  IC50: 65 nM
A2780 [2]
  IC50: 250 nM
A549
  IC50: 200 nM
BXPC-3
  IC50: 450 nM
NIH3T3
  IC50: 800 nM
COLO 205 [5]
  Ratio IC50: 0.34

## CCC(=O)O[C@H](C)[C@H](O)C(=O)[C@@H](OC)[C@@H]1Cc2cc3cc(O[C@H]4C[C@@H](O[C@@H]5C[C@@H](O)[C@H](OC)[C@@H](C)O5)[C@H](OC(C)=O)[C@@H](C)O4)c(C)c(O)c3c(O)c2C(=O)[C@H]1O[C@H]1C[C@H](O[C@H]2C[C@H](O[C@H]3C[C@@](C)(O)[C@@H](OC(C)=O)[C@H](C)O3)[C@H](O)[C@@H](C)O2)[C@H](O)[C@@H](C)O1
COLO 205 [1]
  IC50: 125 nM
A2780 [2]
  IC50: 250 nM
A549
  IC50: 500 nM
BXPC-3
  IC50: 300 nM
NIH3T3
  IC50: 1000 nM
COLO 205 [5]
  Ratio IC50: 0.28

## CCCC(=O)O[C@H](C)[C@H](O)C(=O)[C@@H](OC)[C@@H]1Cc2cc3cc(O[C@H]4C[C@@H](O[C@@H]5C[C@@H](O)[C@H](OC)[C@@H](C)O5)[C@H](OC(C)=O)[C@@H](C)O4)c(C)c(O)c3c(O)c2C(=O)[C@H]1O[C@H]1C[C@H](O[C@H]2C[C@H](O[C@H]3C[C@@](C)(O)[C@@H](OC(C)=O)[C@H](C)O3)[C@H](O)[C@@H](C)O2)[C@H](O)[C@@H](C)O1
COLO 205 [1]
  IC50: 35 nM
A2780 [2]
  IC50: 65 nM
A549
  IC50: 185 nM
BXPC-3
  IC50: 450 nM
NIH3T3
  IC50: 750 nM
COLO 205 [5]
  Ratio IC50: 0.45

## CCCCCCCCCC(=O)O[C@H](C)[C@H](O)C(=O)[C@@H](OC)[C@@H]1Cc2cc3cc(O[C@H]4C[C@@H](O[C@@H]5C[C@@H](O)[C@H](OC)[C@@H](C)O5)[C@H](OC(C)=O)[C@@H](C)O4)c(C)c(O)c3c(O)c2C(=O)[C@H]1O[C@H]1C[C@H](O[C@H]2C[C@H](O[C@H]3C[C@@](C)(O)[C@@H](OC(C)=O)[C@H](C)O3)[C@H](O)[C@@H](C)O2)[C@H](O)[C@@H](C)O1
COLO 205 [1]
  IC50: 250 nM
A2780 [2]
  IC50: 375 nM
A549
  IC50: 500 nM
BXPC-3
  IC50: 800 nM
NIH3T3
  IC50: 1000 nM
COLO 205 [5]
  Ratio IC50: 0.17

## CO[C@@H]1[C@H](O)C[C@@H](O[C@@H]2C[C@H](Oc3cc4cc5c(c(O)c4c(O)c3C)C(=O)[C@@H](O[C@H]3C[C@@H](O[C@H]4C[C@@H](O[C@H]6C[C@](C)(O)[C@@H](OC(C)=O)[C@H](C)O6)[C@H](O)[C@@H](C)O4)[C@H](O)[C@@H](C)O3)[C@H]([C@H](OC)C(=O)[C@@H](O)[C@@H](C)O)C5)O[C@H](C)[C@@H]2OC(C)=O)O[C@@H]1C [CHROMOMYCIN A3]
COLO 205 [1]
  IC50: 63 nM
A2780 [2]
  IC50: 40 nM
A549
  IC50: 100 nM
BXPC-3
  IC50: 130 nM
NIH3T3
  IC50: 1000 nM
